Data: article PMC12584665, “In vitro and in vivo efficacy of vancomycin against Elizabethkingia species and the impact of increased vancomycin MICs” (Microbiology Spectrum, 2025)

Test: Serum drug levels in mice (LC-MS/MS)
Format: in vivo
Conditions: single dose 25 mg/kg subcutaneous, mice, LC-MS/MS; in contrast to 100 mg/kg; 6 to 8 mice per group
Protocol: Fifty microliters of aliquots of murine serum was mixed with 100 µL acetonitrile. The mixture was vortexed and then centrifuged at 15,000 × g for 20 min in a Beckman Coulter Microfuge 22R Centrifuge at room temperature. The supernatant was transferred to a clean tube, and then 15 µL of the supernatant was injected onto LC-MS/MS. The chromatographic system consisted of an Agilent 1200 series LC system and an Agilent ZORBAX Eclipse XDB-C8 column (5 µm, 3.0 × 150 mm) interfaced to an MDS Sciex API3000 tandem mass spectrometer. The MS/MS ion transitions monitored were m/z 725/144 for vancomycin. A gradient HPLC method was employed for separation. Mobile phase A consisted of 10 mM ammonium acetate aqueous solution containing 0.1% formic acid and mobile phase B consisted of acetonitrile. The gradient profile was as follows (min/%B): 0.0–0.9/5, 1.0–2.0/50, 2.1–3.7/95, 3.8–5.0/5. The flow rate was set at 1.5 mL/min.

## CN[C@H](CC(C)C)C(=O)N[C@H]1C(=O)N[C@@H](CC(N)=O)C(=O)N[C@H]2C(=O)N[C@H]3C(=O)N[C@H](C(=O)N[C@H](C(=O)O)c4cc(O)cc(O)c4-c4cc3ccc4O)[C@H](O)c3ccc(c(Cl)c3)Oc3cc2cc(c3O[C@@H]2O[C@H](CO)[C@@H](O)[C@H](O)[C@H]2O[C@H]2C[C@](C)(N)[C@H](O)[C@H](C)O2)Oc2ccc(cc2Cl)[C@H]1O [Vancomycin]
  serum concentration-time profile: resembled that of humans
